These results are taken from ChEMBL document CHEMBL1137124, “Lysine sulfonamides as novel HIV-protease inhibitors: Nepsilon-disubstituted ureas” (Bioorg Med Chem Lett, 2004).

For test [1], the target named is Human immunodeficiency virus type 1 protease (Human immunodeficiency virus 1, UniProt Q72874). The test is described as follows: Inhibition constant for HIV aspartyl protease.
For test [2], the system named is Human immunodeficiency virus. The test can be described thus: Effective concentration against wild type HIV virus was determined in anti-viral assay. Type of test: functional, organism-based. Particulars: Human immunodeficiency virus 1.
The test system of test [3] is Human immunodeficiency virus. The test can be described thus: Effective concentration against wild type virus HIV virus was determined in anti-viral assay. Particulars: Human immunodeficiency virus 1. Type of test: functional, organism-based.

SMILES strings stand for the structures.

For the compound `CC(C)CN([C@H](CO)CCCCNC(=O)N(Cc1ccccc1)Cc1ccncc1)S(=O)(=O)c1ccc(N)cc1`, in test [1], the Ki – broadly, the dissociation constant of the complex between target and ligand, obtained from inhibition or displacement – was found to be 0.09 µM. In addition, the EC50 (commonly the concentration needed to bring the measured effect to its halfway point) in test [2] is above 10 µM.

In test [1], `CC(C)CN([C@H](CO)CCCCNC(=O)N(Cc1ccc([N+](=O)[O-])cc1)Cc1ccc2c(c1)OCO2)S(=O)(=O)c1ccc(N)cc1` returned a Ki of 0.002 µM. Besides, the 50% effective concentration (EC50) in test [2] is 0.62 µM.

`COc1ccc(CN(Cc2ccc3c(c2)OCO3)C(=O)NCCCC[C@@H](CO)N(CCC(C)C)S(=O)(=O)c2ccc(N)cc2)cc1` registered a Ki in test [1] of 0.0029 µM. In test [3], this compound gave a half-maximal effective concentration (EC50) of 0.7 µM.

In turn, `CC(C)CN([C@H](CO)CCCCNC(=O)N(Cc1ccccc1)Cc1ccc2c(c1)OCO2)S(=O)(=O)c1ccc(N)cc1` showed an inhibitory constant (Ki) in test [1] of 0.0026 µM. The compound also came in with an EC50 in test [2] of 1.4 µM.

Take `COc1ccc(CN(Cc2ccc3c(c2)OCO3)C(=O)NCCCC[C@@H](CO)N(CC(C)C)S(=O)(=O)c2ccc(N)cc2)cc1`: in test [1], affinity was put at a Ki of 0.0022 µM. In test [2], this compound had an EC50 of 0.5 µM.

In test [1], `CC(C)CCN([C@H](CO)CCCCNC(=O)N(Cc1ccccc1)Cc1cccc2c1OCO2)S(=O)(=O)c1ccc(N)cc1` gave a Ki of 0.004 µM. In test [3], this compound registered a 50% effective concentration (EC50) above 10 µM.

The compound `Cc1ccc(S(=O)(=O)N(CC(C)C)[C@@H](CCCCNC(=O)N(Cc2ccccc2)Cc2ccncc2)C(=O)O)cc1` gave an inhibition constant Ki in test [1] of 0.0037 µM.

For the compound `CC(C)CN([C@H](CO)CCCCNC(=O)N(Cc1ccccc1)Cc1ccc(F)cc1F)S(=O)(=O)c1ccc(N)cc1`, the affinity in test [1] corresponds to a Ki of 0.012 µM. In addition, a half-maximal response in test [2] (EC50) required 3.2 µM.

`CC(C)CN([C@H](CO)CCCCNC(=O)N(Cc1ccc2c(c1)OCO2)Cc1cccs1)S(=O)(=O)c1ccc(N)cc1` returned an inhibitory constant (Ki) in test [1] of 0.002 µM. Also, the half-maximal effective concentration (EC50) in test [2] was determined as 4 µM.

The compound `CC(C)CN([C@H](CO)CCCCNC(=O)N(Cc1ccc(C(F)(F)F)cc1)Cc1ccc2c(c1)OCO2)S(=O)(=O)c1ccc(N)cc1` came in with a Ki in test [1] of 0.0025 µM. This compound yielded an EC50 in test [2] of 1.6 µM.

`Cc1ccc(S(=O)(=O)N(CC(C)C)[C@@H](CCCCNC(=O)N(Cc2ccccc2)C(C)C)C(=O)O)cc1` returned an inhibition constant (Ki) in test [1] of 0.019 µM.

In the case of `Cc1ccc(S(=O)(=O)N(CC(C)C)[C@@H](CCCCNC(=O)N(Cc2ccccc2)Cc2ccccc2)C(=O)O)cc1`, the Ki in test [1] was found to be 0.0072 µM. Compared with the last compound, the Ki is about 2.6-fold lower.

In turn, `CC(C)CCN([C@H](CO)CCCCNC(=O)N(Cc1ccc(F)cc1)Cc1ccc2c(c1)OCO2)S(=O)(=O)c1ccc(N)cc1` displayed a Ki in test [1] of 0.0049 µM. Further, in test [3], a half-maximal response (EC50) required 1.2 µM.

With `CC(C)CCN([C@H](CO)CCCCNC(=O)N(Cc1ccccc1)Cc1ccccc1)S(=O)(=O)c1ccc(N)cc1`, the inhibition constant Ki in test [1] amounted to 0.0058 µM. The half-maximal effective concentration (EC50) in test [3] is above 10 µM.

In the case of `COc1ccc(CN(Cc2ccc3c(c2)OCO3)C(=S)NCCCC[C@@H](CO)N(CCC(C)C)S(=O)(=O)c2ccc(N)cc2)cc1OC`, the inhibition constant (Ki) in test [1] was 0.0029 µM.

In test [1], `CC(C)CN([C@H](CO)CCCCNC(=O)N(Cc1ccccc1)Cc1cccnc1)S(=O)(=O)c1ccc(N)cc1` gave a Ki of 0.034 µM. In test [2], this compound came in with a 50% effective concentration (EC50) of 8.5 µM.

For `CC(C)CN([C@H](CO)CCCCNC(=O)N(Cc1ccsc1)Cc1ccc2c(c1)OCO2)S(=O)(=O)c1ccc(N)cc1`, in test [1], the inhibition constant (Ki) turned out to be 0.0063 µM. In test [2], this compound had an EC50 of 5 µM.

`CC(C)CCN([C@H](CO)CCCCNC(=O)N(Cc1ccc([N+](=O)[O-])cc1)Cc1ccc2c(c1)OCO2)S(=O)(=O)c1ccc(N)cc1` had an inhibition constant (Ki) in test [1] of 0.0022 µM. Also, in test [3], the concentration giving a half-maximal response (EC50) came to 0.845 µM.

With `Cc1ccc(S(=O)(=O)N(CC(C)C)[C@@H](CCCCNC(=O)N(C(C)C)C(C)C)C(=O)O)cc1`, the Ki in test [1] worked out at 0.3 µM.

For `COc1ccc(CN(Cc2ccc3c(c2)OCO3)C(=S)NCCCC[C@@H](CO)N(CCC(C)C)S(=O)(=O)c2ccc(N)cc2)cc1`, the affinity in test [1], expressed as Ki, was 0.0036 µM. This Ki lies about 83-fold lower than the previous one.

In test [1], `CC(C)CCN([C@H](CO)CCCCNC(=O)N(Cc1ccc2c(c1)OCO2)Cc1cccs1)S(=O)(=O)c1ccc(N)cc1` showed a Ki of 0.0014 µM. The compound also gave a concentration giving a half-maximal response (EC50) in test [3] of 0.8 µM.

As for `COc1cccc(CN(Cc2ccc3c(c2)OCO3)C(=S)NCCCC[C@@H](CO)N(CCC(C)C)S(=O)(=O)c2ccc(N)cc2)c1`, the Ki in test [1] worked out at 0.0026 µM. This counts as single-digit nanomolar.

On to `CC(C)CCN([C@H](CO)CCCCNC(=O)N(Cc1ccccc1)Cc1ccc2c(c1)OCO2)S(=O)(=O)c1ccc(N)cc1`, for which the Ki in test [1] was 0.0041 µM. Besides, the EC50 in test [3] is 0.871 µM.

As for `CC(C)CN([C@H](CO)CCCCNC(=O)N(Cc1ccccc1)Cc1cccs1)S(=O)(=O)c1ccc(N)cc1`, in test [1], affinity was put at a Ki of 0.011 µM. The compound further gave a concentration giving a half-maximal response (EC50) in test [2] of 5 µM.

The compound `CC(C)CN([C@H](CO)CCCCNC(=O)N(Cc1ccc2c(c1)OCO2)Cc1ccc2c(c1)OCO2)S(=O)(=O)c1ccc(N)cc1` had an inhibitory constant (Ki) in test [1] of 0.0017 µM. In addition, a half-maximal response in test [2] (EC50) required 0.15 µM.

As to `CC(C)CCN([C@H](CO)CCCCNC(=S)N(Cc1ccc(F)cc1)Cc1ccc2c(c1)OCCO2)S(=O)(=O)c1ccc(N)cc1`, the Ki in test [1] was determined as 0.0099 µM. This lies in the single-digit nanomolar range.

`Cc1ccc(S(=O)(=O)N(CC(C)C)[C@@H](CCCCNC(=O)NCc2ccccn2)C(=O)O)cc1`: the Ki in test [1] is above 0.3 µM.

In the case of `CC(C)CN([C@H](CO)CCCCNC(=O)N(Cc1ccccc1)Cc1cccc2c1OCO2)S(=O)(=O)c1ccc(N)cc1`, the Ki in test [1] was 0.0054 µM. Further, the EC50 in test [2] is above 10 µM.

In test [1], `CC(C)CN([C@H](CO)CCCCNC(=O)N(Cc1ccccc1)Cc1ccccc1)S(=O)(=O)c1ccc(N)cc1` showed an inhibitory constant (Ki) of 0.012 µM. Besides, in test [2], a half-maximal response (EC50) required 3 µM.

For the compound `CC(C)CN([C@H](CO)CCCCNC(=O)N(Cc1ccc(F)cc1)Cc1ccc2c(c1)OCO2)S(=O)(=O)c1ccc(N)cc1`, in test [1], the inhibitory constant (Ki) is 0.002 µM. For the same compound, in test [2], the EC50 is 0.488 µM.

`Cc1ccc(S(=O)(=O)N(CC(C)C)[C@@H](CCCCNC(=O)NCCc2ccccc2)C(=O)O)cc1`: the affinity in test [1], expressed as Ki, was 0.204 µM.

`COc1cccc(CN(Cc2ccc3c(c2)OCO3)C(=O)NCCCC[C@@H](CO)N(CCC(C)C)S(=O)(=O)c2ccc(N)cc2)c1` displayed a Ki in test [1] of 0.0022 µM.

Turning to `Cc1ccc(S(=O)(=O)N(CC(C)C)[C@@H](CCCCNC(=O)N(CCc2ccccc2)Cc2ccccc2)C(=O)O)cc1`, in test [1], the Ki is above 0.3 µM.

In test [1], `COc1ccc(CN(Cc2ccc3c(c2)OCO3)C(=O)NCCCC[C@@H](CO)N(CCC(C)C)S(=O)(=O)c2ccc(N)cc2)cc1OC` had an inhibition constant Ki of 0.003 µM.

Consider `CC(C)CCN([C@H](CO)CCCCNC(=O)N(Cc1ccc(F)cc1)Cc1ccc2c(c1)OCCO2)S(=O)(=O)c1ccc(N)cc1`, for which, in test [1], the Ki was 0.0054 µM.

`CC(C)CCN([C@H](CO)CCCCNC(=O)N(Cc1ccc(C(F)(F)F)cc1)Cc1ccc2c(c1)OCO2)S(=O)(=O)c1ccc(N)cc1` came in with a Ki in test [1] of 0.003 µM. The concentration for a half-maximal effect (EC50) in test [3] is above 10 µM.

In the case of `Cc1ccc(S(=O)(=O)N(CC(C)C)[C@H](CO)CCCCNC(=O)N(Cc2ccccc2)Cc2ccccc2)cc1`, the affinity in test [1] corresponds to a Ki of 0.015 µM.

As for `CC(C)CN([C@H](CO)CCCCNC(=O)N(Cc1ccccc1)Cc1ccc(F)cc1)S(=O)(=O)c1ccc(N)cc1`, the inhibition constant Ki in test [1] came to 0.0033 µM. In addition, the EC50 in test [2] is above 10 µM.
